Results published in PubChem BioAssay AID1918935 (Molecular Pharmacology Branch, DTP, NCI, 2023).

Tested on: 324938-238-R-J1-PDC complex spheroid viability
Test: Anticancer human tumor 324938-238-R-J1-PDC patient-derived bladder carcinoma cell line growth inhibition
Conditions: for IC50: curve of first compound; for viability, T/C: stronger effect = lower value
Outline: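 Multicellular complex spheroids of tumor cells with human endothelial cells (HUVEC) and mesenchymal stem cells; the LSD1 inhibitor iadademstat was combined with standard-of-care or investigational agents. Top concentration at or near clinical Cmax, half-log dilutions; final DMSO ≤0.25%.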

[1] = second compound 0.1 µM, first compound 0.000949 µM
[2] = second compound 0.1 µM, first compound 0.003 µM
[3] = second compound 0.1 µM, first compound 0.00949 µM
[4] = second compound 0.1 µM, first compound 0.03 µM
[5] = second compound 0.1 µM, first compound 0.0949 µM
[6] = second compound 0.1 µM, first compound 0.3 µM
[7] = second compound 0.316 µM, first compound 0.000949 µM
[8] = second compound 0.316 µM, first compound 0.003 µM
[9] = second compound 0.316 µM, first compound 0.00949 µM
[10] = second compound 0.316 µM, first compound 0.03 µM
[11] = second compound 0.316 µM, first compound 0.0949 µM
[12] = second compound 0.316 µM, first compound 0.3 µM
[13] = second compound 1 µM, first compound 0.000949 µM
[14] = second compound 1 µM, first compound 0.003 µM
[15] = second compound 1 µM, first compound 0.00949 µM
[16] = second compound 1 µM, first compound 0.03 µM
[17] = second compound 1 µM, first compound 0.0949 µM
[18] = second compound 1 µM, first compound 0.3 µM
[19] = second compound 3.16 µM, first compound 0.000949 µM
[20] = second compound 3.16 µM, first compound 0.003 µM
[21] = second compound 3.16 µM, first compound 0.00949 µM
[22] = second compound 3.16 µM, first compound 0.03 µM
[23] = second compound 3.16 µM, first compound 0.0949 µM
[24] = second compound 3.16 µM, first compound 0.3 µM
[25] = second compound 10 µM, first compound 0.000949 µM
[26] = second compound 10 µM, first compound 0.003 µM
[27] = second compound 10 µM, first compound 0.00949 µM
[28] = second compound 10 µM, first compound 0.03 µM
[29] = second compound 10 µM, first compound 0.0949 µM
[30] = second compound 10 µM, first compound 0.3 µM
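Also: spheroids also contain HUVEC and human MSCs and agents combined with iadademstat; spheroids exposed to agents for 7 days before readout.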

Row | SMILES | IC50 (second compound 0.1 µM) [nM] | IC50 (second compound 0.316 µM) [nM] | IC50 (second compound 1 µM) [nM] | IC50 (second compound 3.16 µM) [nM] | IC50 (second compound 10 µM) [nM] | viability, T/C [1] [%] | viability, T/C [2] [%] | viability, T/C [3] [%] | viability, T/C [4] [%] | viability, T/C [5] [%] | viability, T/C [6] [%] | viability, T/C [7] [%] | viability, T/C [8] [%] | viability, T/C [9] [%] | viability, T/C [10] [%] | viability, T/C [11] [%] | viability, T/C [12] [%] | viability, T/C [13] [%] | viability, T/C [14] [%] | viability, T/C [15] [%] | also measured
1 | CCc1c2c(nc3ccc(O)cc13)-c1cc3c(c(=O)n1C2)COC(=O)[C@]3(O)CC + NC1CCC(NC2CC2c2ccccc2)CC1 | < 0.949 | < 0.949 | < 0.949 | < 0.949 | < 0.949 | 8.91 | 8.28 | 5.05 | 2.05 | 0.06 | 0.13 | 7.86 | 10.2 | 6.24 | 2.68 | 0.06 | 0.11 | 8.46 | 8.97 | 6.82 | viability, T/C [16]: 2.81%; viability, T/C [17]: 0.06%; viability, T/C [18]: 0.1%; viability, T/C [19]: 9.74%; viability, T/C [20]: 9.76%; viability, T/C [21]: 7.3%; viability, T/C [22]: 2.95%; viability, T/C [23]: 0.08%; viability, T/C [24]: 0.11%; viability, T/C [25]: 9.49%; viability, T/C [26]: 9.84%; viability, T/C [27]: 8.1%; viability, T/C [28]: 2.75%; viability, T/C [29]: 0.08%; viability, T/C [30]: 0.13%
2 | Nc1ncn(C2CC(O)C(CO)S2)c(=O)n1 (stereo not given) + NC1CC1c1ccc(-c2cccc(O)c2)cc1 | 16.4 | 13.3 | 8.37 | 14.4 | 9.28 | 84.5 | 87.4 | 58.1 | 37.9 | 26.6 | 16.9 | 78.1 | 70.5 | 54 | 36.9 | 29 | 16 | 63.4 | 59.2 | 48.4 | viability, T/C [16]: 38.1%; viability, T/C [17]: 28%; viability, T/C [18]: 16.8%; viability, T/C [19]: 67.2%; viability, T/C [20]: 62%; viability, T/C [21]: 55.2%; viability, T/C [22]: 41.1%; viability, T/C [23]: 32.2%; viability, T/C [24]: 17.5%; viability, T/C [25]: 62.9%; viability, T/C [26]: 57.5%; viability, T/C [27]: 48.8%; viability, T/C [28]: 42.3%; viability, T/C [29]: 29.1%; viability, T/C [30]: 25%
